Tests used:
MAO-B [1] = biological target: T1, MAO-B (Rattus norvegicus, UniProt P19643); assay: Inhibition of MAO in vitro, rat brain mitochondria, 14C phenethylamine (PEA) as substrate; assay type: biochemical; conditions: ratio of the inhibitory activity against MAO-B versus MAO-A
T1 construct: in partially purified mitochondria from rat brain; from tissue; host or cells: rat brain mitochondria (partially purified, differential centrifugation)
T1 sequence (P19643 1-520): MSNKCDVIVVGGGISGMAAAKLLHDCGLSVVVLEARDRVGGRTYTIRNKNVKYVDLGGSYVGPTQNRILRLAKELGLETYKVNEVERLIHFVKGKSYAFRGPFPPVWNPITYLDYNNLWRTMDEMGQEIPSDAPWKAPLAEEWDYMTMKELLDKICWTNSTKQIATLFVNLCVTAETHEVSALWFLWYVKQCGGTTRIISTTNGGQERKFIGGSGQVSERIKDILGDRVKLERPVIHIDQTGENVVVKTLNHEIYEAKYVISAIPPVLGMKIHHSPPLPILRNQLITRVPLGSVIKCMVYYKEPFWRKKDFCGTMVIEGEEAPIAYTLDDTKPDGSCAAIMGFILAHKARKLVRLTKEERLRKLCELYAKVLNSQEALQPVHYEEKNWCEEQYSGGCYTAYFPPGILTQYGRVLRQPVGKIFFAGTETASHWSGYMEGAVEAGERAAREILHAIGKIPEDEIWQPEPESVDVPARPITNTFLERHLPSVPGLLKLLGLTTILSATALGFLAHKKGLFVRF
From the text: The ability of a compound of structure 1 to inhibit MAO can be determined in vitro by the method of A. Christmas et al., Br. J. Pharmacol. 45, 490 (1972) in partially purified mitochondria from rat brain using ¹⁴C o-tyramine or ¹⁴C phenethylamine and ¹⁴C 5-HT as the substrate. The MAO inhibitory activity of a compound is expressed as the "IC₅₀" value, which is the molar concentration required to produce 50% inhibition of the enzyme. The IC₅₀ values for certain compounds of structure 1 were determined using the above-described method, and the results are set forth in Table I.
The selectivity of a compound of structure 1 with respect to inhibition of MAO-A and MAO-B can be determined by preparing mitochondria from rat brain by homogenation in phosphate buffer (0.1 M, pH 7.2) followed by differential centrifugation. The mitochondria are suspended in the same buffer, the test compound is added at the desired concentration, and the system is incubated. At different time intervals, aliquots are taken and MAO activity is measured using ¹⁴C 5-hydroxytryptamine (5HT; a preferred substrate for MAO-A) or 14C-phenethylamine (PEA; a preferred substrate for MAO-B) as the substrates. The selectivity is expressed as the ratio of the inhibitory activity against MAO-B versus the inhibitory activity against MAO-A. (Zreika, McDonald, Bey, Palfreyman, J. Neurochem., 43, 448-454 (1984)).

MAO-A = assay: Inhibition of MAO ex vivo, brain mitochondrial fraction after oral dosing, 14C 5-hydroxytryptamine as substrate; assay type: in vivo; conditions: rats, orally (po)
Method: (§1) The ability of a compound of formula 1 to inhibit MAO can be determined ex vivo by the following procedure:
(§2) The test compound is administered orally (po) to rats and the animals are killed at various times after treatment. The brain is removed and a mitochondrial fraction, described in Example 12 is prepared. MAO activity is determined using ¹⁴C p-tyramine, as the substrate. Selectivity can be determined by repeating the above-described test using either ¹⁴C 5-hydroxytryptamine (for MAO-A) or ¹⁴C phenethylamine (for MAO-B) as the substrate for determining the % inhibition.

MAO-B [2] = assay: Inhibition of MAO ex vivo, brain mitochondrial fraction after oral dosing, 14C phenethylamine as substrate; assay type: in vivo; conditions: rats, orally (po)
Method: as §1, §2

| Compound | MAO B SELECTIVITY (MAO-B [1]) | ED50 for MAO-A inhibition (MAO-A) [mg/kg] | ED50 for MAO-B inhibition (MAO-B [2]) [mg/kg] |
| --- | --- | --- | --- |
| CCCC/C(=C\F)CN [(E)-2-Butyl-3-fluoroallylamine] | 55 | – | – |
| CCCCCCC/C(=C\F)CN [(E)-2-Heptyl-3-fluoroallylamine] | 13 | – | – |
| CCCCCC/C(=C\F)CN [(E)-2-Hexyl-3-fluoroallylamine] | 24 | – | – |
| CC(C)C/C(=C\F)CN [(E)-2-Isobutyl-3-fluoroallylamine] | 77 | 0.8 | 0.05 |
| CC(C)/C(=C\F)CN [(E)-2-Isopropyl-3-fluoroallylamine] | 68 | – | – |
| CCCCCCCCCCC/C(=C\F)CN [(E)-2-Undecyl-3-fluoroallylamine] | 1.5 | – | – |
| CCC(C)/C(=C\F)CN (stereo not drawn) [(E)-2-sec-Butyl-3-fluoroallylamine] | 24 | – | – |

Reference: EP0224924B1, “Non-aromatic fluorallylamine MAO inhibitors” (MERRELL DOW PHARMACEUTICALS INC., priority 1985, dated 1987)
